In brackets after ≈: the same amount, converted by molar mass.
Experiments:
[1] = molecular target: surface domain of B1aR (Staphylococcus aureus, UniProt P18357); experiment: B1aR assay (BOCILLIN FL labeling, SDS-PAGE); type: binding, Staphylococcus aureus (MRSA); settings: Table 10; class symbols x/xx/xxx, key not given
Protocol: (§1) β-Lactamase Assays (TEM-1, P99, and OXA-10): The activity of the compounds of the invention (inhibitors) toward β-lactamases was evaluated using 96 well plates. The reaction mixture included 10 mM sodium phosphate, pH 7.0, 150 mM sodium chloride, 0.01% Triton X-100, 100 μM nitrocefin, 10 nM of β-lactamases (class A: TEM-1; class C: P99, or class D: OXA-10), and variable concentrations of the inhibitors in a total volume of 100 μL. β-Lactamases were pre-incubated with the compounds at room temperature for 5 minutes, and the assay was initiated by the addition of nitrocefin. The inhibition of the enzyme activity by the compounds was determined by monitoring color change (from yellow to red) of nitrocefin after 20 minutes. Stock solutions of the compounds were prepared in dimethyl sulfoxide (DMSO). No more than 5% DMSO was present in assays, unless noted otherwise. B1aR Assay: The surface domain of B1aR (1 μM) was added to each inhibitor (at various concentrations) in 100 mM sodium phosphate, 50 mM sodium bicarbonate, at pH 7.0. The reaction mixtures were incubated at room temperature for 20 minutes. BOCILLIN FL, a fluorogenic ligand, was added to a concentration of 20 μM in a final volume of 20 μL. The mixtures were incubated at 37° C. for 5 minutes, at which point the reactions were quenched by the addition of 15 μL of the SDS sample buffer (125 mM Tris, 4% SDS, 20% glycerol, 2% 2-mercaptoethanol, pH 6.8), and were boiled for 4 minutes. The samples were loaded onto 15% SDS-PAGE, the gel was developed and scanned using a Storm 840® Fluorimager. The fluorescent bands of BOCILLIN FL-labeled B1aR^S were analyzed by Image Quant 5.2 software. PBP2 Assay: The PBP2 assay was performed according to the methods of Villegas-Esterada et al. (J. Am. Chem. Soc. 2008, 130, 9212-9213).

[2] = molecular target: TEM-1 (class A β-lactamase) (Escherichia coli, UniProt P62593); experiment: β-Lactamase assay (nitrocefin colour change), TEM-1; type: biochemical; settings: for TEM-1: Table 10, class symbols x/xx/xxx, key not given
Protocol: as §1

[3] = molecular target: P99 (class C β-lactamase) (Enterobacter cloacae, UniProt P05364); experiment: β-Lactamase assay (nitrocefin colour change), P99; type: biochemical; settings: for P99: Table 10, class symbols x/xx/xxx, key not given; for IC50: nitrocefin 100 μM, 10 nM enzyme, 5 min pre-incubation, read-out: IC50s P99
Protocol: as §1

[4] = molecular target: OXA-10 (class D β-lactamase) (Pseudomonas aeruginosa, UniProt P14489); experiment: β-Lactamase assay (nitrocefin colour change), OXA-10; type: biochemical; settings: for OXA-10: Table 10, class symbols x/xx/xxx, key not given; for IC50: nitrocefin 100 μM, 10 nM enzyme, 5 min pre-incubation, read-out: IC50s OXA-10
Protocol: as §1

[5] = system: S. aureus NRS11 (Mec^S); experiment: MIC against S. aureus NRS11 (Table 13); type: cell-based, Staphylococcus aureus; settings: for MIC: Staphylococcus aureus, compounds dissolved in DMSO or 1% sodium carbonate, read-out: MIC; for inhibitory properties (in words): Table 13
Protocol: All recited compounds were dissolved in DMSO or in 1% sodium carbonate and transferred to micro titer plates to final concentrations of 1000 μg/mL.

[6] = system: S. aureus NRS100 (Mec^R); experiment: MIC against S. aureus NRS100 (Table 14); type: cell-based, Staphylococcus aureus; settings: for MIC: Staphylococcus aureus, compounds dissolved in DMSO or 1% sodium carbonate, read-out: MIC; for inhibitory activity (in words): Table 14
Protocol: The recited compounds were dissolved in DMSO or in 1% sodium carbonate and transferred into micro titer plate to final concentration of 1000 μg/mL.

[7] = system: methicillin-resistant strains of S. aureus; experiment: MIC against methicillin-resistant S. aureus (Table 15); type: cell-based; settings: Staphylococcus aureus, dissolved in 100% DMSO, diluted into Mueller Hinton II Broth to final 16 μg/mL
Text: Table 15 illustrates the inhibition of methicillin-resistant strains of S. aureus by selected compounds of the invention.

[8] = molecular target: PBP2a (Staphylococcus aureus, UniProt P07944); experiment: PBP2 assay (Villegas-Esterada et al.); type: biochemical; settings: Table 10
Protocol: as §1

Sequence of OXA-10 (class D β-lactamase) (P14489 20-266, species assumed): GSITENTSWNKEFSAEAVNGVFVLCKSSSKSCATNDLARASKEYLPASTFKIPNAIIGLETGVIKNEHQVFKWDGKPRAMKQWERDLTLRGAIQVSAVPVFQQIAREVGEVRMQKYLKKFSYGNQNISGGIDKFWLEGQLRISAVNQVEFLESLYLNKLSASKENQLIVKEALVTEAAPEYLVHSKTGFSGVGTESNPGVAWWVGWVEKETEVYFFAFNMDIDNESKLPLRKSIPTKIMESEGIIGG
Sequence of P99 (class C β-lactamase) (P05364 21-381): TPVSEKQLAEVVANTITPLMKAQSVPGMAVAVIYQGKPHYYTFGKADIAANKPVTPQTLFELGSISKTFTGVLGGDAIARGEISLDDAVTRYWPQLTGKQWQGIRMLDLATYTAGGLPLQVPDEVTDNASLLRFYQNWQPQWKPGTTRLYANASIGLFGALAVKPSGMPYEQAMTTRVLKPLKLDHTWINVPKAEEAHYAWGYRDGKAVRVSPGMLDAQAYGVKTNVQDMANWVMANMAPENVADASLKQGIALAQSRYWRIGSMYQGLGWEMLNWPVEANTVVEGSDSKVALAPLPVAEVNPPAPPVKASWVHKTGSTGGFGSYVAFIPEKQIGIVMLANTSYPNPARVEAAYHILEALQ
Sequence of PBP2a (P07944 whole entry): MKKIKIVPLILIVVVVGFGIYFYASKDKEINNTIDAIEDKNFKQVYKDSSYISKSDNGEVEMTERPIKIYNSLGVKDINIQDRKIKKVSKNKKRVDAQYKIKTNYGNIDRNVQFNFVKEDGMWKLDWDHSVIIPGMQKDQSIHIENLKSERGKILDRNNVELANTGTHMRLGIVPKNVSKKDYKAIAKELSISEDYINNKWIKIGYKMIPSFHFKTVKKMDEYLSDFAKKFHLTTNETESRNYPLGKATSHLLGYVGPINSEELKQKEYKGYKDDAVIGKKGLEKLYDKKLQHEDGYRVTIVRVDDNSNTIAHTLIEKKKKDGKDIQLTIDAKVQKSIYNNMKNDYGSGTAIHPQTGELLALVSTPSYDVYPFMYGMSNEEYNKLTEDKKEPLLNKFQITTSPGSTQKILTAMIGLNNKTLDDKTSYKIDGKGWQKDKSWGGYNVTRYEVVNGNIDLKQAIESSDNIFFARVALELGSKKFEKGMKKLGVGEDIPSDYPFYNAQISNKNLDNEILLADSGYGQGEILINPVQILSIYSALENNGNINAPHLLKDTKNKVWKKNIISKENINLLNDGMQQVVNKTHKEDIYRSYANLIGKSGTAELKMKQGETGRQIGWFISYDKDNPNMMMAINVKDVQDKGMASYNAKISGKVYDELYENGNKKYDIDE
Sequence of TEM-1 (class A β-lactamase) (P62593 24-286 limits assumed): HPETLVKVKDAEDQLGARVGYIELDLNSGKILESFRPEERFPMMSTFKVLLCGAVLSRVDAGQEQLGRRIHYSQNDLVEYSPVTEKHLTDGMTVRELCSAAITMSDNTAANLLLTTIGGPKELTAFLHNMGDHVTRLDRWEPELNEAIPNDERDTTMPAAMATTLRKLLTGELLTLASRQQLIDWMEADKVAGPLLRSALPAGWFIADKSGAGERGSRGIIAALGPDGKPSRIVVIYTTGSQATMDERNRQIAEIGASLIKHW
Sequence of surface domain of B1aR (P18357 331-585): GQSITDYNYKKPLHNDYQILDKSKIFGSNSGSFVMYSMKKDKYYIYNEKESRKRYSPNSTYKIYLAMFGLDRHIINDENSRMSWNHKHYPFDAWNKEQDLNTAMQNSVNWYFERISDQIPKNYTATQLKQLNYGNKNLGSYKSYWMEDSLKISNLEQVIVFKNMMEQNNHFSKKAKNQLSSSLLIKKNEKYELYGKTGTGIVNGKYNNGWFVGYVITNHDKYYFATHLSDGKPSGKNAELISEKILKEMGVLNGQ

Structure (SMILES) | BlaR [1] | P99 [3] | OXA-10 [4] | TEM-1 [2] | MIC [6] [µg/mL] | other results
CCCCCCCCCCOc1ccc(N(C)C(=O)c2c(F)c(F)c(F)c(F)c2C(=O)O)cc1 [Compound 319] | xxx | – | – | – | – | –
CCCCCCCCCCCCCCCCOc1ccc(NC(=O)c2c(Cl)c(Cl)c(Cl)c(Cl)c2C(=O)O)cc1 [Compound 290] | xxx | xxx | xxx | – | – | IC50 [2]: 0.6 ± 0.06 µM; IC50 [3]: 0.4 ± 0.06 µM; IC50 [4]: 0.5 ± 0.05 µM
CCCCCCCCCCOc1ccc(N(C)C(=O)c2c(Br)c(Br)c(Br)c(Br)c2C(=O)O)cc1 [Compound 316] | xx | – | – | – | – | –
O=C(O)c1c(Cl)c(Cl)c(Cl)c(Cl)c1C(=O)Nc1ccc(OCc2cccc(C(F)(F)F)c2)c(Cl)c1 [Compound 389] | – | xxx | xxx | xxx | < 8 | IC50 [2]: 4.5 ± 0.4 µM; IC50 [3]: 20.2 ± 3 µM; MIC [5]: < 8 µg/mL; inhibitory properties (in words) [5]: significant inhibitory properties; inhibitory activity (in words) [6]: significant inhibitory activity; IC50 [4]: 44.2 ± 3.4 µM
CCCCCCCCOc1ccc(NC(=O)c2c(Br)c(Br)c(Br)c(Br)c2C(=O)O)cn1 [Compound 346] | – | xxx | xxx | xxx | < 8 | IC50 [2]: 2.8 ± 0.3 µM; IC50 [3]: 7.8 ± 1.2 µM; MIC [7]: 8 µg/mL (≈ 11.7 µM); MIC [5]: < 8 µg/mL; inhibitory properties (in words) [5]: significant inhibitory properties; inhibitory activity (in words) [6]: significant inhibitory activity; IC50 [4]: 13.1 ± 0.8 µM
O=C(O)c1c(F)c(F)c(F)c(F)c1C(=O)Nc1ccc(OCc2cccc(C(F)(F)F)c2)c(Cl)c1 [Compound 388] | – | – | xx | xx | 128 (≈ 245 µM) | MIC [5]: 128 µg/mL (≈ 245 µM)
O=C(O)c1c(F)c(F)c(F)c(F)c1C(=O)Nc1ccc(Oc2cc(C(F)(F)F)cc(C(F)(F)F)c2)cc1 [Compound 412] | xx | – | – | – | – | –
CCCCCCCCCCCCCCCCOc1ccc(NC(=O)c2c(Br)c(Br)c(Br)c(Br)c2C(=O)O)cc1 [Compound 291] | xx | xxx | xxx | xxx | – | IC50 [2]: 0.2 ± 0.04 µM; IC50 [3]: 0.2 ± 0.02 µM; IC50 [4]: 0.3 ± 0.06 µM
O=C(O)c1ccc([N+](=O)[O-])cc1C(=O)Nc1ccc(OCc2cccc(OC(F)(F)F)c2)c(Cl)c1 [Compound 422] | xxx | xx | xx | xx | 125 (≈ 245 µM) | PBP2a* (inhibitory concentration) [8]: xxx
O=C(O)c1ccccc1C(=O)Nc1ccc(OCc2cccc(C(F)(F)F)c2)c(Cl)c1 [Compound 387] | xx | – | – | – | – | –
CCCCCCCCCCOc1ccc(NC(=O)c2c(Br)c(Br)c(Br)c(Br)c2C(=O)O)cc1 [Compound 329] | xxx | – | – | – | – | –
CCCCCCCCCCCCCCCCOc1ccc(NC(=O)c2c(F)c(F)c(F)c(F)c2C(=O)O)cc1 [Compound 289] | xxx | xx | xxx | – | – | IC50 [2]: 23.1 ± 2.4 µM; IC50 [3]: 1.2 ± 0.1 µM; IC50 [4]: 0.7 ± 0.15 µM
CCCCCCCCOc1ccc(NC(=O)c2c(F)c(F)c(F)c(F)c2C(=O)O)cc1Cl [Compound 301] | xxx | xxx | xxx | xx | 16 (≈ 33.6 µM) | IC50 [2]: 5.1 ± 1 µM; IC50 [3]: 9.9 ± 1.7 µM; IC50 [4]: 23 ± 2 µM; PBP2a* (inhibitory concentration) [8]: xxx
CC(Oc1ccc(NC(=O)c2c(Br)c(Br)c(Br)c(Br)c2C(=O)O)cc1Cl)c1ccccc1 (stereo not shown) [Compound 382] | – | xxx | xxx | xxx | < 8 | IC50 [2]: 5.3 ± 1.1 µM; IC50 [3]: 24.4 ± 1.9 µM; MIC [5]: < 8 µg/mL; inhibitory activity (in words) [6]: significant inhibitory activity; IC50 [4]: 26.6 ± 1.6 µM; PBP2a* (inhibitory concentration) [8]: xxx
CCCCCCCCOc1ccc(NC(=O)c2c(Cl)c(Cl)c(Cl)c(Cl)c2C(=O)O)cc1Cl [Compound 302] | – | – | – | – | 4 (≈ 7.38 µM) | MIC [7]: 4 µg/mL (≈ 7.38 µM)
O=C(O)c1c(Br)c(Br)c(Br)c(Br)c1C(=O)Nc1ccc(Oc2ccccc2)cc1 [Compound 222] | – | – | – | – | – | PBP2a* (inhibitory concentration) [8]: xx
O=C(O)c1ccccc1C(=O)Nc1ccc(OCc2cccc(OC(F)(F)F)c2)c(Cl)c1 [Compound 417] | xx | – | – | – | 250 (≈ 537 µM) | –
CCCCCCCCOc1ccc(NC(=O)c2c(F)c(F)c(F)c(F)c2C(=O)O)cc1 [Compound 271] | xxx | xxx | xxx | xxx | – | –
O=C(O)C1=C(C(=O)N[C@@H](CO)[C@@H](O)c2ccccc2)SCCS1 [Compound 127] | – | – | – | – | – | PBP2a* (inhibitory concentration) [8]: xx
O=C(O)c1c(Br)c(Br)c(Br)c(Br)c1C(=O)Nc1ccc(OCc2ccccc2)nc1 [Compound 365] | – | – | xx | – | 16 (≈ 24.1 µM) | MIC [5]: 8 µg/mL (≈ 12 µM); inhibitory properties (in words) [5]: significant inhibitory properties; inhibitory activity (in words) [6]: significant inhibitory activity
Cc1ccccc1COc1ccc(NC(=O)c2c(Cl)c(Cl)c(Cl)c(Cl)c2C(=O)O)cc1Cl [Compound 385] | – | xx | xxx | xx | 16 (≈ 30 µM) | MIC [5]: 16 µg/mL (≈ 30 µM); inhibitory properties (in words) [5]: significant inhibitory properties; inhibitory activity (in words) [6]: significant inhibitory activity; PBP2a* (inhibitory concentration) [8]: xxx
CCCCCCCCCCOc1ccc(N(C)C(=O)c2ccccc2C(=O)O)cc1 [Compound 318] | xxx | – | – | – | – | –
CCC(CO)NC(=O)C1=C(C(=O)O)SCCS1 (stereo not shown) [Compound 126] | – | – | – | – | – | PBP2a* (inhibitory concentration) [8]: xx
CCCCCCCCOc1ccc(NC(=O)c2ccccc2C(=O)O)cc1 [Compound 270] | xx | xxx | xxx | xxx | – | –
O=C(O)c1c(F)c(F)c(F)c(F)c1C(=O)Nc1ccc(OCc2cccc(OC(F)(F)F)c2)c(Cl)c1 [Compound 418] | xxx | – | xx | – | 125 (≈ 232 µM) | –
